Results on five compounds are retold here after article PMC7604171 (Journal of agricultural and food chemistry, 2020).

≈ marks a conversion by molar mass, not a printed value. Where “and” joins values, the source holds several entries; their conditions need not be identical. Identical values can stand only once. Like-named read-outs stand apart in the source and are kept apart here.

A short description of series [1]: I.V. pharmacokinetics of ME nanosuspension in mice.
A further series deals with Caco-2 cell monolayer. In words: Caco-2 monolayer apical to basolateral transport. It is filed as in vitro ADME. The following applies: ME 0.05 mg/mL in HBSS pH 7.4, 37 °C, n=3.
A short description of series [2]: Oral pharmacokinetics of ME nanosuspension in mice. The following applies: for absolute bioavailability (estimated): oral 60 mg/kg ME nanosuspension vs I.V. 5 mg/kg.
A short description of series [3]: Oral pharmacokinetics of ME in corn oil in mice.
For series [4], the system named is Cal-27 oral squamous cell carcinoma cell line. The series can be described thus: MTT anti-proliferation assay in Cal-27. It is filed as cell-based. The following applies: for IC50 anti-proliferation activity: Cal-27, MTT, triplicate; for IC50: Homo sapiens, read-out: IC50 anti-proliferation activity.
Series [5] has as its system SCC-9 oral squamous cell carcinoma cell line. The series can be described thus: MTT anti-proliferation assay in SCC-9. It is filed as cell-based. Conditions: for IC50 anti-proliferation activity: SCC-9, MTT, treatment period 72 hr, triplicate; for IC50: Homo sapiens, SCC-9, 72 h, read-out: IC50 anti-proliferation activity.
In series [6] the test system is CYP450 (mouse intestinal S9 fraction). The series can be described thus: Phase I CYP metabolism of MHNK to HNK in mouse intestinal S9 fraction. It is filed as in vitro ADME, C57BL/6 mouse. The following applies: MHNK 5, 1 and 0.5 µM, 60 min.
Series [7] has as its system CYP450 (mouse liver microsomes). In words: Phase I CYP metabolism of MHNK to HNK in mouse liver microsomes. It is filed as in vitro ADME, C57BL/6 mouse. Conditions: 0.5 µM MHNK, after 60 min, 37 °C. For orientation: Liver microsomes are vesicles of endoplasmic reticulum, rich in cytochrome P450 enzymes.
Series [8] can be described thus: Caco-2 monolayer apical to basolateral transport. It is filed as in vitro ADME. The following applies: human, Caco-2, pH 7.4.
Another series is described as follows: in vivo. The following applies: C57BL/6, mouse, iv, 5 mg/kg.
The conditions of series [9]: mouse, in vivo, iv.
The mark [10] stands for this setting: I.V. 5 mg ME/kg, mouse whole blood, n=5.
[11] abbreviates: oral 60 mg ME/kg in nanosuspension, mouse whole blood, n=5.
Setting [12] is: oral 60 mg ME/kg in nanosuspension, n=5.
Setting [13] is: oral 60 mg ME/kg in corn oil, mouse whole blood, n=5.
Where [14] appears, read: oral 60 mg ME/kg in corn oil, n=5.
Setting [15] is: C57BL/6, mouse, in vivo, iv, 5 mg/kg.
[16] abbreviates: C57BL/6, mouse, in vivo, po, 60 mg/kg.

As to `C=CCc1ccc(O)c(-c2ccc(OC)c(CC=C)c2)c1` [MHNK, 4-O-methylhonokiol], the “AUC0–24” value was 623.2 ± 358.8 ng·h/mL in series [1] (setting [10]), 79.9 ± 15.8 ^* hr*ng/mL in [2] (setting [11]) and 9.6 ± 4.0 ng·h/mL in series [3] (setting [13]). Besides, the “AUC0−∞” value in series [1] (setting [10]) was 631.1 ± 360.0 ng·h/mL; in series [2] (setting [11]), 86.3 ± 15.7 ^* hr*ng/mL; in [3] (setting [13]), 10.8 ± 3.0 ng·h/mL. Further, the values for the Cmax in series [1] (setting [10]), in series [2] (setting [11]) and in [3] (setting [13]) were 824.3 ± 309.5 ng/mL, 14.3 ± 6.6 ng/mL and 3.7 ± 0.9 ng/mL, respectively. The Half-life in [1] (setting [10]) is 3 h and 2.9 ± 2.1 h; in [2] (setting [12]), 7.1 ± 2.5 h; in series [3] (setting [14]), 1.4 ± 0.6 h. Also, the CL in [1] (I.V. 5 mg ME/kg, n=5) was 33.3 ± 26.7 mL/min/kg. In addition, the “MRT0–24” value in series [1] (I.V. 5 mg ME/kg, n=5) amounted to 1.5 ± 0.6 h; in series [2] (setting [12]) it was 5.9 ± 0.7 h; in [3] (setting [14]) it was 1.8 ± 0.3 h. The same compound had a V in series [1] (I.V. 5 mg ME/kg, n=5) of 5.5 ± 1.7 L/kg. In addition, the “apical to basolateral permeability (Pab)” value in the series on Caco-2 cell monolayer was 7.7 ± 0.4 × 10^−6 cm/sec. For the same compound, the Tmax in [2] (setting [11]) was found to be 3.0 ± 2.0 h; in series [3] (setting [13]), 1.3 ± 0.6 h. The “absolute bioavailability (estimated)” value in [2] was 1.1% and < 2%. Also, the IC50 anti-proliferation activity in series [4] (treatment period 24 hr) is recorded as 14.5 ± 0.9 µg/mL (≈ 51.7 µM); in series [4] (treatment period 48 hr), 7.7 ± 0.8 µg/mL (≈ 27.5 µM); in series [4] (treatment period 72 hr), 5.6 ± 1.4 µg/mL (≈ 20 µM); in [4] (treatment period 96 hr), 3.2 ± 0.3 µg/mL (≈ 11.4 µM); in series [5], 5.2 ± 1.3 µg/mL (≈ 18.5 µM). Also, the “HNK formation from MHNK” value in series [6] is recorded as “no HNK detected”. In series [7], the “MHNK metabolized to HNK” value stood at 51 ± 23.9%.
In [1] (setting [15]), `C=CCc1ccc(O)c(-c2cc(CC=C)ccc2O)c1` [MGN, magnolol] had an AUC(0-inf) of 1230 ± 651 ng·h/mL, an AUC(0-t) of 1230 ± 650 ng·h/mL, a peak concentration (Cmax) of 2280 ± 700 ng/mL and a Half-life of 1 ± 0.3 h. For the same compound, in [1] (setting [15]), the mean residence time MRT last is 0.8 ± 0.5 h and the clearance is 13.3 mL/min/kg. The compound further displayed a V in [1] (I.V. 5 mg ME/kg, n=5) of 1.0 ± 0.4 L/kg. In series [2] (setting [16]), this compound showed an AUC(0-inf) of 182 ± 28.8 ng·h/mL, an AUC(0-t) of 176 ± 27.3 ng·h/mL, a Cmax of 29.1 ± 10.4 ng/mL and a Half-life of 5 ± 1.5 h. Besides, in series [2] (setting [16]), the MRT last stood at 5.1 ± 0.6 h and the Tmax was 2.2 ± 1.5 h. For the same compound, in series [2], the “absolute bioavailability (estimated)” value was less than 2%. Besides, in series [3] (setting [16]), the area under the curve AUC(0-inf) turned out to be 37.8 ± 16.5 ng·h/mL, the exposure AUC(0-t) was 23.1 ± 5.3 ng·h/mL, the highest level (Cmax) was 9.4 ± 3.3 ng/mL and the Half-life is 3.8 ± 2.3 h. In series [3] (setting [16]), the MRT last is 2.3 ± 0.6 h and the Tmax was found to be 0.9 ± 0.7 h. In series [4] (CAL-27, 24 h), the IC50 came out at 20.7 ± 1.8 µg/mL (≈ 77.7 µM). In addition, the IC50 in series [4] (CAL-27, 48 h) came to 11.9 ± 0.6 µg/mL (≈ 44.7 µM). The IC50 in series [4] (CAL-27, 72 h) is 5.1 ± 0.6 µg/mL (≈ 19.1 µM). Moreover, the IC50 in series [4] (CAL-27, 96 h) amounted to 4 ± 0.8 µg/mL (≈ 15 µM). Further, the IC50 in [5] turned out to be 7.9 ± 0.4 µg/mL (≈ 29.7 µM).
Regarding `O=c1[nH]cc(F)c(=O)[nH]1` [5-FU, reference compound], the IC50 anti-proliferation activity in [4] (treatment period 72 hr) was found to be 0.4 ± 0.1 µg/mL (≈ 3.08 µM); in series [5], 1.9 ± 0.4 µg/mL (≈ 14.6 µM).
Regarding `C=CCc1ccc(O)c(-c2ccc(O)c(CC=C)c2)c1` [HNK, honokiol], the Papp A→B at 4 h, 0.05 mg/mL in series [8] was found to be 13.4 ×10⁻⁶ cm/s. Besides, in [4] (CAL-27, 24 h), the IC50 is 20.8 ± 1.3 µg/mL (≈ 78.1 µM). Moreover, the IC50 in series [4] (CAL-27, 48 h) stood at 12.2 ± 1 µg/mL (≈ 45.8 µM). In addition, the IC50 in [4] (CAL-27, 72 h) came out at 6.6 ± 0.6 µg/mL (≈ 24.8 µM). For the same compound, the IC50 in [4] (CAL-27, 96 h) was 4.2 ± 0.4 µg/mL (≈ 15.8 µM). Further, the IC50 in series [5] was 5.5 ± 0.6 µg/mL (≈ 20.7 µM). In “in vivo”, this compound showed an AUC(0-inf) of 1150 ± 719 ng·h/mL, an exposure AUC(0-t) of 1150 ± 719 ng·h/mL, a Cmax of 2400 ± 1040 ng/mL and a Half-life of 0.7 ± 0.04 h. In the series “in vivo”, this compound showed a mean residence time MRT last of 0.6 ± 0.1 h and a clearance of 20 mL/min/kg.
Turning to `C=CCc1ccc(O)c(-c2cc(CC=C)ccc2OS(=O)(=O)O)c1` [MGN_Sulfate], in [9], the Half-life came out at 2.2 ± 0.7 h and the Tmax amounted to 6 ± 6 min.

As a reminder, the Cmax is the highest concentration seen after dosing. One may read the Tmax as the time from dosing to the highest level. Usually AUC(0-inf) stands for total exposure, with the tail of the curve extrapolated. Read a high AUC(0-inf) as more exposure. In general, AUC(0-t) refers to exposure summed from dosing to a finite time, without extrapolation to infinity. Usually MRT last stands for a mean duration of stay, worked out from the concentration-time curve. By clearance is commonly meant the rate of elimination divided by the concentration. Low readings indicate a low capacity for elimination, high ones a high capacity for elimination. As a reminder, the Papp A→B is the apparent permeability from the apical to the basolateral side of a cell layer.
